The record followed here is patent US7329761B2, “Substituted imides” (Celgene Corporation, priority 1994, dated 2008).

The melting point is the temperature, or range, at which the solid turns liquid. In turn, `COc1ccc(C(C)N2C(=O)c3ccccc3C2=O)cc1OC` (stereo not shown) [Example 2, 1-Phthalimido-1-(3′,4′-dimethoxyphenyl) Ethane] registered a melting point of 124 to 125 °C.

The molecule `CCC(c1ccc(OC)cc1)N1C(=O)c2ccccc2C1=O` (stereo not shown) [Example 3, 1-Phthalimido-1-(4-methoxyphenyl)propane] showed a melting point of 85 to 86 °C.

`COc1ccc(CN2C(=O)c3ccccc3C2=O)cc1OC` [Example 4, 1-Phthalimido-1-(3′,4′-dimethoxyphenyl)methane] came in with a melting point of 160 to 161 °C.

As to `CCCC(CCC)C(c1ccc(OC)c(OC)c1)N1C(=O)c2ccccc2C1=O` (stereo not shown) [Example 7, 1-Phthalimido-1 (3′,4′-dimethoxyphenyl)-2-propylpentane], the melting point fell in the range of 100 to 101 °C.
